According to patent publication US9463188B2, “Osteopontin production inhibitor containing dictyopyrone derivative or dihydrodictyopyrone derivative as active ingredient” (TOHOKU UNIVERSITY, priority 2013, dated 2016):

Tested on: OPN production by human non-small cell lung cancer-derived cell line A549
Assay: OPN production by A549 cells (Human Osteopontin Immunoassay, per mg protein)
Assay type: cell-based
Conditions: 2-day culture
Description: The confirmation test was performed in the following manner. The compound 3 wad added to a culture liquid containing cells of a human non-small cell lung cancer-derived cell line A549 or a human liver cancer-derived cell line HepG2, and the amount of OPN in culture supernatant after 2-day culture was measured using Human Osteopontin Immunoassay kit (R&D systems) and compared with the OPN amount of a compound 3-free group (control group).
The compound 3 has also cell growth inhibitory effect. Therefore, in order to properly evaluate the OPN production-suppressing effect of the compound 3, 1×CCLR used in luciferase assay was added to cells remaining in each well after removal of culture supernatant to prepare a cell lysate, and the amount of protein in the cell lysate was measured using BCA Protein Assay Kit (Thermo Scientific). The influence of addition of the compound 3 on the amount of OPN production was evaluated by comparison of the amount of OPN per milligram of protein.
First, A549 cells or HepG2 cells were suspended in DMEM medium containing 10% FCS and 1% P/S at 4×10^4 cells/mL to obtain a cell suspension, and 500 μL of the cell suspension was dispensed into each well of a 24-well plate. In order to perform the test in triplicate, 3 wells were prepared for a control group and 3 wells were prepared for each test compound-treated group at each concentration. […]

CCCCCCCCCCCC(=O)[C@H]1C(=O)O[C@@H](C)C[C@@H]1C [Chemical formula 3]
suppression of OPN production vs control group (30 μmol/L, significance level less than 5%): significantly suppressed
suppression of OPN production vs control group (60 μmol/L, significance level less than 1%): significantly suppressed
